How the values were obtained:
[1] = Inhibition of human 5-HT3 receptor expressed in HEK293T cells at 10 uM relative to control; settings: HEK-293T
[2] = Inhibition of human GABA-gated Cl- channel assessed as inhibition constant
[3] = Inhibition of H4K20me3 in human PC-3 cells assessed as decrease in methylation level incubated for 72 hrs by Hoechst staining based high content microscopy; type: functional, cell-based; settings: PC-3, 72 h
Adenosine receptor A1 = target: T1, Adenosine receptor A1 (Homo sapiens, UniProt P30542); assay: Inhibition of human Adenosine receptor A1 assessed as inhibition constant
T1 sequence (P30542 whole entry): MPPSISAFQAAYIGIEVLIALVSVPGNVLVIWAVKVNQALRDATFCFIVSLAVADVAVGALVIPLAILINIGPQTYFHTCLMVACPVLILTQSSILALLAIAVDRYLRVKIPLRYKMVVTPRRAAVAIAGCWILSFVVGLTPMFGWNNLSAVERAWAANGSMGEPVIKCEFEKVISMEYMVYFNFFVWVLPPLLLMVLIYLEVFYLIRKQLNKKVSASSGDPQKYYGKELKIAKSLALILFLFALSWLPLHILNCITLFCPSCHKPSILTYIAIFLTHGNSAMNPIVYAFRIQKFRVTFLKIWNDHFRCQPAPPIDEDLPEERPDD

[4] = Inhibition of H4K20me3 in human U2OS cells incubated for 48 hrs by Western blotting analysis; type: functional, cell-based
[5] = Inhibition of H4K20me1 in human LNCaP cells incubated for 48 hrs by Western blotting analysis; type: functional, cell-based
U2OS = assay: Antiproliferative activity against human U2OS cells assessed as change in number of nuclei incubated for 72 hrs by Hoechst staining based high content microscopy; type: functional, cell-based
[6] = Inhibition of H4K20me2 in human U2OS cells incubated for 48 hrs by Western blotting analysis; type: functional, cell-based
[7] = target: KV channel (voltage-gated potassium channel) (Homo sapiens, UniProt O43525+O43526+O95259+P16389+P17658+P22001+P22459+P22460+P48547+P51787+P56696+Q03721+Q09470+Q12809+Q14003+Q14721+Q16322+Q6PIU1+Q8NCM2+Q8TAE7+Q8TDN1+Q8TDN2+Q92953+Q96KK3+Q96L42+Q96PR1+Q96RP8+Q9BQ31+Q9H252+Q9H3M0+Q9NR82+Q9NS40+Q9NSA2+Q9NZV8+Q9UIX4+Q9UJ96+Q9UK17+Q9ULD8+Q9ULS6+Q9UQ05); assay: Inhibition of human KV channel at 10 uM relative to control; type: protein assay
B-cell [8] = assay: Induction of DNA repair in mouse B cells assessed as inhibition in ability of splenic cells to switch from IgM to IgE at 1 uM incubated for 3 days in the presence of LPS plus IL-4 by flow cytometry analysis (Rvb=1.97%); type: functional; settings: 72 h, time 3 day
B-cell [9] = assay: Induction of DNA repair in mouse B cells assessed as inhibition in ability of splenic cells to switch from IgM to IgG1 at 1 uM incubated for 2 days in the presence of LPS by flow cytometry analysis (Rvb=9.59%); type: functional; settings: 48 h, time 2 day
Substance-K receptor = target: T2, Substance-K receptor (Homo sapiens, UniProt P21452); assay: Inhibition of human Substance-K receptor assessed as inhibition constant
T2 sequence (P21452 whole entry): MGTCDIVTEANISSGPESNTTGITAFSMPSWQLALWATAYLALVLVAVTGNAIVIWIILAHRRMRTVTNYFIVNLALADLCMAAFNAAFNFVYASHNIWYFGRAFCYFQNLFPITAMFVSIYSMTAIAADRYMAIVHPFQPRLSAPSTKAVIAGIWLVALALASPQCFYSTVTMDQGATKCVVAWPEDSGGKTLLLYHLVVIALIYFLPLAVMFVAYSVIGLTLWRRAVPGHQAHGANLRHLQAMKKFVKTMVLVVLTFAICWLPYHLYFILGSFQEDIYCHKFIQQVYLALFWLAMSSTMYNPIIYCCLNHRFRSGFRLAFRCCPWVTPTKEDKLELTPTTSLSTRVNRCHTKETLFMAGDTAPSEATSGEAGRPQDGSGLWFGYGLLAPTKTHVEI

[10] = Inhibition of H4K20me1 in human U2OS cells assessed as increase in methylation level incubated for 72 hrs by Hoechst staining based high content microscopy; type: functional, cell-based
B-cell [11] = assay: Induction of DNA repair in mouse B cells assessed as inhibition in ability of splenic cells to switch from IgM to IgG3 at 10 uM incubated for 4 days in the presence of LPS by flow cytometry analysis (Rvb=5.71%); type: functional; settings: 96 h, time 4 day
[12] = Inhibition of H4K20me3 in human U2OS cells assessed as decrease in methylation level incubated for 72 hrs by Hoechst staining based high content microscopy; type: functional, cell-based
B-cell [13] = assay: Induction of DNA repair in mouse B cells assessed as inhibition in ability of splenic cells to switch from IgM to IgE at 10 uM incubated for 3 days in the presence of LPS plus IL-4 by flow cytometry analysis (Rvb=1.97%); type: functional; settings: 72 h, time 3 day
PC-3 = assay: Antiproliferative activity against human PC-3 cells assessed as change in number of nuclei incubated for 72 hrs by Hoechst staining based high content microscopy; type: functional, cell-based; settings: PC-3, 72 h
[14] = target: Kappa-type opioid receptor (Homo sapiens, UniProt P41145); assay: Inhibition of human Kappa-type opioid receptor assessed as inhibition constant
[15] = Inhibition of H4K20me2 in human LNCaP cells incubated for 48 hrs by Western blotting analysis; type: functional, cell-based
HFF [16] = assay: Cytotoxicity against HFF cells assessed as cell viability at 1.5 to 100 uM incubated after 72 hrs; type: toxicity, cell-based; settings: human, dose 1.5-100 µM
[17] = target: L-type calcium channel (verapamil binding site) (Homo sapiens, UniProt O60840+Q01668+Q13698+Q13936); assay: Inhibition of human L-type calcium channel verapamil binding site at 10 uM relative to control; type: protein assay
[18] = Inhibition of H4K20me1 in human U2OS cells incubated for 48 hrs by Western blotting analysis; type: functional, cell-based
B-cell [19] = assay: Induction of DNA repair in mouse B cells assessed as inhibition in ability of splenic cells to switch from IgM to IgG1 at 10 uM incubated for 2 days in the presence of LPS by flow cytometry analysis (Rvb=9.59%); type: functional; settings: 48 h, time 2 day
MEF = assay: Antiproliferative activity against mouse MEF cells assessed as loss of pericentric H4K20me3 at 10 uM incubated for 3 days by immunofluorescence analysis relative to control; type: functional; settings: time 3 day
[20] = Inhibition of H4K20me1 in human PC-3 cells assessed as increase in methylation level incubated for 72 hrs by Hoechst staining based high content microscopy; type: functional, cell-based; settings: PC-3, 72 h
[21] = target: Histone-lysine N-methyltransferase KMT5C (Homo sapiens, UniProt Q86Y97); assay: Inhibition of human SUV420H2 using Biotin-tagged H4K20me1 and [3H-SAM] as substrate incubated for 2 hrs by scintillation proximity assay
[22] = Inhibition of H4K20me3 in human LNCaP cells incubated for 48 hrs by Western blotting analysis; type: functional, cell-based
HFF [23] = assay: Cytotoxicity against HFF cells assessed as cell viability upto 12.5 uM incubated for 48 hrs; type: toxicity, cell-based; settings: human
Adenosine receptor A3 = target: T3, Adenosine receptor A3 (Homo sapiens, UniProt P0DMS8); assay: Inhibition of human Adenosine receptor A3 assessed as inhibition constant
T3 sequence (P0DMS8 whole entry): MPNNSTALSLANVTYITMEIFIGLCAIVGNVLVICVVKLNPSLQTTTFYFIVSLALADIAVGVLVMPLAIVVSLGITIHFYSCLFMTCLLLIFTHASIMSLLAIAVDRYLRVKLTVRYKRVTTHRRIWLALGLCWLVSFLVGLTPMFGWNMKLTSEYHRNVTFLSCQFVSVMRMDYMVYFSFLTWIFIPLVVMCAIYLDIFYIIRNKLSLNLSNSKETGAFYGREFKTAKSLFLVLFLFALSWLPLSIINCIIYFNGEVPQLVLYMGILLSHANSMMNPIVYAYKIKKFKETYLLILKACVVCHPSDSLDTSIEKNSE

[24] = target: Histone-lysine N-methyltransferase KMT5B (Homo sapiens, UniProt Q4FZB7); assay: Inhibition of recombinant human 6His-(Tev)-G-SUV420H1 (69 to 335 residues) using Biotin-tagged H4K20me1 and [3H-SAM] as substrate incubated for 2 hrs by scintillation proximity assay
B-cell [25] = assay: Induction of DNA repair in mouse B cells assessed as inhibition in ability of splenic cells to switch from IgM to IgG3 at 1 uM incubated for 4 days in the presence of LPS by flow cytometry analysis (Rvb=5.71%); type: functional; settings: 96 h, time 4 day
Adenosine receptor A2a = Adenosine receptor A2a (Homo sapiens, UniProt P29274); assay: Inhibition of human Adenosine receptor A2a assessed as inhibition constant
[26] = target: Delta-type opioid receptor (Homo sapiens, UniProt P41143); assay: Inhibition of human Delta-type opioid receptor assessed as inhibition constant
Sequence of Delta-type opioid receptor (P41143 whole entry): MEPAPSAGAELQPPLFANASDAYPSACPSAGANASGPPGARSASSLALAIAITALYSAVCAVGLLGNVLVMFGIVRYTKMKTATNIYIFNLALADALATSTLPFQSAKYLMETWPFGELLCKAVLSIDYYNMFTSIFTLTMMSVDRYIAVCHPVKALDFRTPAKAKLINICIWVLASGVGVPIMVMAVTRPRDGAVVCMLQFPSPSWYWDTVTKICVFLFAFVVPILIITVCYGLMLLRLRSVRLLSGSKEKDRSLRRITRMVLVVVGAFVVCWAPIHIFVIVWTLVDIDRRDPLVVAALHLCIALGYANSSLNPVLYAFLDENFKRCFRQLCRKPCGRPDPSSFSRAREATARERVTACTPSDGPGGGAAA

Sequence of Histone-lysine N-methyltransferase KMT5B (Q4FZB7 whole entry, the tested form may be a part): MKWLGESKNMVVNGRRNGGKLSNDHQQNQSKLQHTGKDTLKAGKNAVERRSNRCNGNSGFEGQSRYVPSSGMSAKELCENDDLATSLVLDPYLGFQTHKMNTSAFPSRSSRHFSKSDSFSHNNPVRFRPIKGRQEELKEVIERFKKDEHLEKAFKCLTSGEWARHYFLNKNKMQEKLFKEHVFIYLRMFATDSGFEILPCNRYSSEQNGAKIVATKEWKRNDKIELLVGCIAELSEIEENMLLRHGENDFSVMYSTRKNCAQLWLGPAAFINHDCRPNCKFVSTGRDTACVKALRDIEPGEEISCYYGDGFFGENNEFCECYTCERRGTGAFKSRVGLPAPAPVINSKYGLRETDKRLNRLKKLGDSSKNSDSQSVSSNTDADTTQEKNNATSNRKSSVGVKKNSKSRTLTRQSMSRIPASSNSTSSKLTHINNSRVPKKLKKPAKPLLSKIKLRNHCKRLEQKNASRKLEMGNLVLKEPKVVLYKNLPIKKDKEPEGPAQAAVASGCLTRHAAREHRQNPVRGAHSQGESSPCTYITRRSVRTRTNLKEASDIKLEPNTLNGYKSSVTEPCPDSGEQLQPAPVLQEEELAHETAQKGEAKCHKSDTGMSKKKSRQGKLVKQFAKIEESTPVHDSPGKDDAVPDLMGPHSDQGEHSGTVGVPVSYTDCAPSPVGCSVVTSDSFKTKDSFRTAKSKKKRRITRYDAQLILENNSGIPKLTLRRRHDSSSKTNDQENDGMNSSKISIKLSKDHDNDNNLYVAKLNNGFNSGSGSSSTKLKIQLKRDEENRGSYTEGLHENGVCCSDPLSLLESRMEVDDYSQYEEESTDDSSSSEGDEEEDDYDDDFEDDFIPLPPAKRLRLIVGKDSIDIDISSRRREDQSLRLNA
Sequence of Histone-lysine N-methyltransferase KMT5C (Q86Y97 whole entry): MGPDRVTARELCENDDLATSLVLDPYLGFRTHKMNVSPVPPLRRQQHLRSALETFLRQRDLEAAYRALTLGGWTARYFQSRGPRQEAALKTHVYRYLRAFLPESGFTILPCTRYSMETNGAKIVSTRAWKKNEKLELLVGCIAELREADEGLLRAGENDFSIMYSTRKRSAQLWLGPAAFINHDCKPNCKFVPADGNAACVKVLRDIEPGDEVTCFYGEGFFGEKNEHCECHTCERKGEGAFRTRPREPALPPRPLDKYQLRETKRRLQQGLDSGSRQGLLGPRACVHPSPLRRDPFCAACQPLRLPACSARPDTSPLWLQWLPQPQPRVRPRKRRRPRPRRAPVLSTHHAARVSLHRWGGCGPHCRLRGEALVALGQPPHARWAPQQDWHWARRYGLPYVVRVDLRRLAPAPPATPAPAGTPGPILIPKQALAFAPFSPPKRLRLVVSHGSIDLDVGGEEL
Sequence of Adenosine receptor A2a (P29274 whole entry): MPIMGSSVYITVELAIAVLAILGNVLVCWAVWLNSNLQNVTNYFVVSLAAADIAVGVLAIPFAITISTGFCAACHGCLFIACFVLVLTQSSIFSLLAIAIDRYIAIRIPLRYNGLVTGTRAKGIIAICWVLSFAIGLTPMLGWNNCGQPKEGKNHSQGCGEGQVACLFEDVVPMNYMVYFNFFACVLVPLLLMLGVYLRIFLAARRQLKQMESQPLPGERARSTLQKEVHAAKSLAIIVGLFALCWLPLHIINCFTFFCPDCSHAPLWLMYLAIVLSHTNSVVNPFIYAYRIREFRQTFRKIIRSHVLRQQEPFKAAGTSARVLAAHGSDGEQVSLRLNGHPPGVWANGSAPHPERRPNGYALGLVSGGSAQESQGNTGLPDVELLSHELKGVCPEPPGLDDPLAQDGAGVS
Sequence of Kappa-type opioid receptor (P41145 whole entry): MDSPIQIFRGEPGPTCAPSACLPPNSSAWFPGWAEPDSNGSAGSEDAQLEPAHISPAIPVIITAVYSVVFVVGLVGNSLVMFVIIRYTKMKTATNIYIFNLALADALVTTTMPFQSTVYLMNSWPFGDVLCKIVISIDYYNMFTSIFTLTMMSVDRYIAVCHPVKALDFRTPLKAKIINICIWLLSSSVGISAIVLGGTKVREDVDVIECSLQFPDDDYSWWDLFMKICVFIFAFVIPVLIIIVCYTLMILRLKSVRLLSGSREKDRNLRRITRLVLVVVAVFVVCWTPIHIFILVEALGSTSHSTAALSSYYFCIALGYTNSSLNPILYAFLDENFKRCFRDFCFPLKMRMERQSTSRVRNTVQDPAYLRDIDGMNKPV

Clc1cc2c(NC3CCCC3)nnc(-c3ccncc3)c2cc1Cl
inhibition at 10 µM [1]: 32%
Ki [2]: 1800 nM
IC50 [3]: 521 nM
Ki (Adenosine receptor A1): 21 nM
IC50 [4]: 370 nM
IC50 [5]: 799 nM
IC50 (U2OS): > 20000 nM
IC50 [6]: 262 nM
inhibition at 10 µM [7]: -18%
inhibition at 1 µM (B-cell [8]): 1.47%
inhibition at 1 µM (B-cell [9]): 5.87%
Ki (Substance-K receptor): 4100 nM
IC50 [10]: 1910 nM
inhibition at 10 µM (B-cell [11]): 3.85%
IC50 [12]: 502 nM
inhibition at 10 µM (B-cell [13]): 0.73%
IC50 (PC-3): > 20000 nM
Ki [14]: > 10000 nM
IC50 [15]: 511 nM
Activity (HFF [16]): Non-Toxic
inhibition at 10 µM [17]: -4%
IC50 [18]: 736 nM
inhibition at 10 µM (B-cell [19]): 3.68%
Activity (MEF): 97%
IC50 [20]: 686 nM
IC50 [21]: 144 nM
IC50 [22]: 211 nM
Activity (HFF [23]): Non-Toxic
Ki (Adenosine receptor A3): 2000 nM
IC50 [24]: 25 nM
inhibition at 1 µM (B-cell [25]): 3.79%
Ki (Adenosine receptor A2a): 28 nM
Ki [26]: 9000 nM

— ChEMBL document CHEMBL5649167, “The SUV4-20 inhibitor A-196 verifies a role for epigenetics in genomic integrity” (Nat Chem Biol, 2017)
